Assay results as given in ChEMBL document CHEMBL3351341, “Discovery of a potent and selective EGFR inhibitor (AZD9291) of both sensitizing and T790M resistance mutations that spares the wild type form of the receptor” (J Med Chem, 2014).
Values after ≈ are worked out from the molar mass of the structure shown. Each block holds one compound with its values, some of them ahead of it.

What was measured:
NCI-H1975 [1] = experiment: Antitumor activity against human NCI-H1975 cells harboring EGFR L858R/[…] double mutant xenografted in SCID mouse assessed as tumor growth inhibition at […], po qd for 7 days relative to control; format: functional; conditions: Mus musculus, NCI-H1975, 168 h, read-out: TGI
A-431 [2] = experiment: Antitumor activity against human A431 cells xenografted in SCID mouse assessed as tumor growth inhibition at […], po qd for 7 days relative to control; format: functional; conditions: Mus musculus, A-431, 168 h, read-out: TGI
[3] = Lipophilicity, log D of the compound at pH 7.4; format: physicochemical; conditions: buffer
[4] = Thermodynamic solubility of the compound at pH 7.4; format: physicochemical; conditions: buffer, read-out: Therm_solubility
[5] = biological target: T1, Insulin-like growth factor 1 receptor (Homo sapiens, UniProt P08069); experiment: Inhibition of IGF1R (unknown origin)
NCI-H1975 [6] = experiment: Cytotoxicity against human NCI-H1975 cells harboring EGFR L858R/[…] double mutant assessed as growth inhibition after 72 hrs by SYTOX green nucleic acid staining-based fluorescence assay; format: functional; conditions: Homo sapiens, NCI-H1975, 72 h
[7] = Cytotoxicity against human PC9 cells harboring EGFR exon 19 deletion activating mutant assessed as growth inhibition after 72 hrs by SYTOX green nucleic acid staining-based fluorescence assay; format: functional, PC-9; conditions: Homo sapiens, PC-9, 72 h
[8] = Cytotoxicity against human Calu3 cells assessed as growth inhibition after 72 hrs by SYTOX green nucleic acid staining-based fluorescence assay; format: functional, Calu-3; conditions: Homo sapiens, Calu-3, 72 h
[9] = Unbound fraction in human plasma; format: ADME, cell-free
[10] = Unbound fraction in nude mouse plasma; format: ADME, cell-free
NCI-H1975 [11] = experiment: Antitumor activity against human NCI-H1975 cells harboring EGFR L858R/[…] double mutant xenografted in SCID mouse assessed as tumor growth inhibition at 10 mg/kg/day, po qd for 7 days relative to control; format: functional; conditions: Mus musculus, NCI-H1975, 168 h, read-out: TGI
A-431 [12] = experiment: Antitumor activity against human A431 cells xenografted in SCID mouse assessed as tumor growth inhibition at 10 mg/kg/day, po qd for 7 days relative to control; format: functional; conditions: Mus musculus, A-431, 168 h, read-out: TGI
[13] = Fraction unbound in Han Wistar rat plasma; format: ADME, cell-free
NCI-H1975 [14] = experiment: Antitumor activity against human NCI-H1975 cells harboring EGFR L858R/[…] double mutant xenografted in SCID mouse assessed as tumor growth inhibition at 5 mg/kg/day, po qd for 7 days relative to control; format: functional; conditions: Mus musculus, NCI-H1975, 168 h, read-out: TGI
A-431 [15] = experiment: Antitumor activity against human A431 cells xenografted in SCID mouse assessed as tumor growth inhibition at 5 mg/kg/day, po qd for 7 days relative to control; format: functional; conditions: Mus musculus, A-431, 168 h, read-out: TGI
[16] = biological target: Voltage-gated inwardly rectifying potassium channel KCNH2 (Homo sapiens, UniProt Q12809); experiment: Inhibition of human ERG
[17] = Intrinsic clearance in human hepatocytes measured per 10^6 cells; format: ADME, cell-based, Hepatocyte; conditions: read-out: CLH
[18] = Cmax in mouse at 10 mg/kg, po; format: ADME, organism-based; set-up: dose 10 mg/kg, route oral; conditions: in vivo
Rattus norvegicus = experiment: Clearance in iv dosed Han Wistar rat; format: ADME, organism-based; conditions: in vivo
[19] = Oral bioavailability in Han Wistar rat at 5 mg/kg; format: ADME, organism-based; conditions: in vivo
[20] = biological target: T1, Insulin-like growth factor 1 receptor; experiment: Inhibition of IGF1R (unknown origin) at 1 uM relative to control
Insulin receptor [21] = biological target: T2, Insulin receptor (Homo sapiens, UniProt P06213); experiment: Inhibition of INSR (unknown origin) at 1 uM relative to control
Mus musculus [22] = experiment: Inhibition of EGFR exon 19 deletion activating mutant phosphorylation in human PC9 cells xenografted in SCID mouse at 10 mg/kg, po measured 6 hrs post dose; format: functional; conditions: PC-9, 6 h
Mus musculus [23] = experiment: Inhibition of EGFR exon 19 deletion activating mutant phosphorylation in human PC9 cells xenografted in SCID mouse at 10 mg/kg, po measured 24 hrs post dose; format: functional; conditions: PC-9, 24 h
Mus musculus [24] = experiment: Inhibition of EGFR L858R/[…] double mutant phosphorylation in human NCI-H1975 cells xenografted in SCID mouse at 10 mg/kg, po measured 6 hrs post dose; format: functional; conditions: NCI-H1975, 6 h
Mus musculus [25] = experiment: Inhibition of EGFR L858R/[…] double mutant phosphorylation in human NCI-H1975 cells xenografted in SCID mouse at 10 mg/kg, po measured 24 hrs post dose; format: functional; conditions: NCI-H1975, 24 h
[26] = Antitumor activity against human PC9 cells harboring EGFR exon 19 deletion activating mutant xenografted in SCID mouse assessed as tumor growth inhibition at 10 mg/kg/day, po qd for 7 days relative to control; format: functional, PC-9; conditions: Homo sapiens, PC-9, 168 h, read-out: TGI
Insulin receptor [27] = biological target: T2, Insulin receptor; experiment: Inhibition of INSR (unknown origin)
Mus musculus [28] = experiment: Inhibition of EGFR exon 19 deletion activating mutant phosphorylation in human PC9 cells xenografted in SCID mouse at 10 mg/kg, po measured 1 hr post dose; format: functional; conditions: PC-9, 1 h
Mus musculus [29] = experiment: Inhibition of EGFR exon 19 deletion activating mutant phosphorylation in human PC9 cells xenografted in SCID mouse at 10 mg/kg, po measured 16 hrs post dose; format: functional; conditions: PC-9, 16 h
Mus musculus [30] = experiment: Inhibition of EGFR exon 19 deletion activating mutant phosphorylation in human PC9 cells xenografted in SCID mouse at 10 mg/kg, po measured 30 hrs post dose; format: functional; conditions: PC-9, 30 h
Mus musculus [31] = experiment: Inhibition of EGFR L858R/[…] double mutant phosphorylation in human NCI-H1975 cells xenografted in SCID mouse at 10 mg/kg, po measured 1 hr post dose; format: functional; conditions: NCI-H1975, 1 h
Mus musculus [32] = experiment: Inhibition of EGFR L858R/[…] double mutant phosphorylation in human NCI-H1975 cells xenografted in SCID mouse at 10 mg/kg, po measured 16 hrs post dose; format: functional; conditions: NCI-H1975, 16 h
Mus musculus [33] = experiment: Inhibition of EGFR L858R/[…] double mutant phosphorylation in human NCI-H1975 cells xenografted in SCID mouse at 10 mg/kg, po measured 30 hrs post dose; format: functional; conditions: NCI-H1975, 30 h

T1 sequence (P08069 31-736 limits assumed): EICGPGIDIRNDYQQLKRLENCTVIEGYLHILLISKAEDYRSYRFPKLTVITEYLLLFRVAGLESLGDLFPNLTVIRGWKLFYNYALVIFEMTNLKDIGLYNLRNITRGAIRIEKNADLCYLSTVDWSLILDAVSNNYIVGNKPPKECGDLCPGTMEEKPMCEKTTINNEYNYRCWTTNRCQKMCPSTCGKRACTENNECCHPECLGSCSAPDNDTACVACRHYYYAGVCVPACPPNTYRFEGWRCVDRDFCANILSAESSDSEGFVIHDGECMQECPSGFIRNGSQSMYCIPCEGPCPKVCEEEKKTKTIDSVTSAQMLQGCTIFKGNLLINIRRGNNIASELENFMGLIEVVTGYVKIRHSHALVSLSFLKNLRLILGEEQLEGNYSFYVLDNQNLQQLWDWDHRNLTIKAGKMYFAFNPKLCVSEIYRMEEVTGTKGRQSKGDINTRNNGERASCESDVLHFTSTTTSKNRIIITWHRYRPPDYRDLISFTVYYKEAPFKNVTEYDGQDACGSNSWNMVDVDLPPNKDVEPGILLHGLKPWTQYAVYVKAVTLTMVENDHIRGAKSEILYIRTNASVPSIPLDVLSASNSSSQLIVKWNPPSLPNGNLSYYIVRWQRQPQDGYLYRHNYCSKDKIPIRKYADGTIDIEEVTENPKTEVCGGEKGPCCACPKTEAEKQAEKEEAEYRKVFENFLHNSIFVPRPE
T1 sequence (P08069 741-1367 limits assumed): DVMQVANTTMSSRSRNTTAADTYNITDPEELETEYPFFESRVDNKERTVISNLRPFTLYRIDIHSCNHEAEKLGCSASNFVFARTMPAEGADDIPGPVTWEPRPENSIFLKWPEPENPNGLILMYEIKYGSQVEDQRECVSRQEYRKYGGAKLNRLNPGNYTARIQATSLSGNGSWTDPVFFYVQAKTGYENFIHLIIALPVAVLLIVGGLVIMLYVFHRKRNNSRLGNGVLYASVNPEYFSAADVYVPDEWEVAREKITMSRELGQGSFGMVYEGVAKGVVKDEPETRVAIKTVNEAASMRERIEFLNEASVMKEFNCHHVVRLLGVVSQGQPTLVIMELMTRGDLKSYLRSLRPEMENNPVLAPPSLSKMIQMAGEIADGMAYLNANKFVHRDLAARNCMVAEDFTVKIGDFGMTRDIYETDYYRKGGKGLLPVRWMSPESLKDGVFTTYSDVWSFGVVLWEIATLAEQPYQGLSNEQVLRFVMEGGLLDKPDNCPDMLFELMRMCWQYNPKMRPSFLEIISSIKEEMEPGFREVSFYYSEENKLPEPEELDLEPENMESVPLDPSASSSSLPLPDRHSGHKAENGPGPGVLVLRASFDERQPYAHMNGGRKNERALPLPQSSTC
T2 sequence (P06213 28-758 limits assumed): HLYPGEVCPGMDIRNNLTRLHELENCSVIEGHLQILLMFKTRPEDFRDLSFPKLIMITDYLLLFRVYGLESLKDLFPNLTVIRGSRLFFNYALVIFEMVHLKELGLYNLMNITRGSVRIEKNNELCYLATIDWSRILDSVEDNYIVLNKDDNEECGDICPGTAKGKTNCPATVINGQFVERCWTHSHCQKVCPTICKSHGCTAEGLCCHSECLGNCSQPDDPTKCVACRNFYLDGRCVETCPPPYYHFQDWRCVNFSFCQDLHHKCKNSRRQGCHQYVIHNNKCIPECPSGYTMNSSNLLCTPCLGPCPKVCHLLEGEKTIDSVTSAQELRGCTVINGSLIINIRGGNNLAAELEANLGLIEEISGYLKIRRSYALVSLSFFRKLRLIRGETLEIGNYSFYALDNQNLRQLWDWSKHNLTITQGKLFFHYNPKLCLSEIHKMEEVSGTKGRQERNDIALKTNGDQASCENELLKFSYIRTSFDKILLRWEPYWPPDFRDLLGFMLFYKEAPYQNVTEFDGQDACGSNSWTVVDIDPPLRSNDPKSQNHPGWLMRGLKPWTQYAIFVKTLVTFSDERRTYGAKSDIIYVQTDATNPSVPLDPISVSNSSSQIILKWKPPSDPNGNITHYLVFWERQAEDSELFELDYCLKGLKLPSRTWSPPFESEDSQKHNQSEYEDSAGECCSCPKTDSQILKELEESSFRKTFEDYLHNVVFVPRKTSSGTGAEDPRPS
T2 sequence (P06213 763-1382 limits assumed): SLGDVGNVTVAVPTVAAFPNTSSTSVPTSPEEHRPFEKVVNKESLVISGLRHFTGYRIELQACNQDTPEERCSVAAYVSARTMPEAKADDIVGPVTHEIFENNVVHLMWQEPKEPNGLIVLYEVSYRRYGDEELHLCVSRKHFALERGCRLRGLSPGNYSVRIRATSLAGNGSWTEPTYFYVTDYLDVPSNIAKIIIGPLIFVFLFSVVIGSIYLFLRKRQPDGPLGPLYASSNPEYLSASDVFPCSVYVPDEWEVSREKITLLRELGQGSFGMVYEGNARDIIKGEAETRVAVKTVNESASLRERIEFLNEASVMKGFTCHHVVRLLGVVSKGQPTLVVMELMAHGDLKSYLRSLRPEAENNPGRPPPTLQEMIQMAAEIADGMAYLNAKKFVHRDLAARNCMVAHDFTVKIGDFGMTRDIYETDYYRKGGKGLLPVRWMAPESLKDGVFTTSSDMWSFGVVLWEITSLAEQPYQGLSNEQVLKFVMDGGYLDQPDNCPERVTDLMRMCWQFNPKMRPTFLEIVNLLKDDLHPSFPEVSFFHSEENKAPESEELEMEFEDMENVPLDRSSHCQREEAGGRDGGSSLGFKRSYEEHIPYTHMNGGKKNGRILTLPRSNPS
Chain of Voltage-gated inwardly rectifying potassium channel KCNH2 (Q12809 whole entry): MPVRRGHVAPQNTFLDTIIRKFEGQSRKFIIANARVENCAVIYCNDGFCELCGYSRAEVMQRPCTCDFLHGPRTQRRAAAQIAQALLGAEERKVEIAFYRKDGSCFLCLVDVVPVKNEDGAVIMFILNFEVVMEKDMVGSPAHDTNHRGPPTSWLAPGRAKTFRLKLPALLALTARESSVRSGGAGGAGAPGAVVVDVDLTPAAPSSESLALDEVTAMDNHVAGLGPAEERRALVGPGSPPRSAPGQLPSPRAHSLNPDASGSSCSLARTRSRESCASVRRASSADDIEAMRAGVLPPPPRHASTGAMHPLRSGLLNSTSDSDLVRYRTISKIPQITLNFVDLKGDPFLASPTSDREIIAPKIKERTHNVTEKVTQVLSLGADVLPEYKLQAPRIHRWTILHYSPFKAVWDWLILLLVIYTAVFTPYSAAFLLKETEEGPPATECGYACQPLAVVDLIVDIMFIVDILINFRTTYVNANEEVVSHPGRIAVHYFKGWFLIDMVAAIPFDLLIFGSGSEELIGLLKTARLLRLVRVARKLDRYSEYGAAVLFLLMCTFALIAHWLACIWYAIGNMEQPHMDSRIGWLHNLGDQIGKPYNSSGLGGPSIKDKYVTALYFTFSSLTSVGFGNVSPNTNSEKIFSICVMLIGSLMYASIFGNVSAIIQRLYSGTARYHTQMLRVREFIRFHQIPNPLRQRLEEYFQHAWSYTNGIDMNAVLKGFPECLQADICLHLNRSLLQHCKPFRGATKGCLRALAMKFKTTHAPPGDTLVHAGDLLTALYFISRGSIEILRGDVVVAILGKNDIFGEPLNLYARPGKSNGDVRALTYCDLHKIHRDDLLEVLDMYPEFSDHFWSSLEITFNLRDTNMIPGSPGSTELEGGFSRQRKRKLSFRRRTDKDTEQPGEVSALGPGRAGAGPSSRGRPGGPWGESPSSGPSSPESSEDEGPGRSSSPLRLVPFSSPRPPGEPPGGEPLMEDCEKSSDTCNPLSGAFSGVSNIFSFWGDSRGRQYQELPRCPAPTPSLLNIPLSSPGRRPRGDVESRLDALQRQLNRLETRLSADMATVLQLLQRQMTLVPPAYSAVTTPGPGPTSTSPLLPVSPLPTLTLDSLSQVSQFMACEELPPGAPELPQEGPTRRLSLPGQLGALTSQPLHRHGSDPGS

- logD [3]: 2.6
Structure (SMILES): C=CC(=O)Nc1cc(Nc2ncc(Cl)c(-c3cnn4ccccc34)n2)c(OC)cc1N1CCN(C(=O)CN(C)C)CC1

- logD [3]: 2.1
Structure (SMILES): C=CC(=O)Nc1cc(Nc2ncc(Cl)c(-c3cnn4ccccc34)n2)c(OC)cc1N1CCN(C(=O)[C@@H](C)N)CC1

- IC50 [5]: 0.007 µM
- inhibition [20]: 98%
- inhibition (Insulin receptor [21]): 98%
- IC50 (Insulin receptor [27]): 0.021 µM
Structure (SMILES): C=CC(=O)Nc1cc(Nc2ncc(Cl)c(-c3cnn4ccccc34)n2)c(OC)cc1N1CC[C@@H](N(C)C)C1
- inhibition in vivo at 10 mg/kg (Mus musculus [22]): 76%
- inhibition in vivo at 10 mg/kg (Mus musculus [23]): 68%
- inhibition in vivo at 10 mg/kg (Mus musculus [24]): 94%
- inhibition in vivo at 10 mg/kg (Mus musculus [25]): 88%
- inhibition in vivo at 10 mg/kg/day [26]: 227%
- inhibition in vivo at 10 mg/kg/day (A-431 [12]): 27%

Further lines, the compound ahead of its results:

Structure (SMILES): C=CC(=O)Nc1cc(Nc2nccc(-c3c[nH]c4ccccc34)n2)c(OC)cc1N(C)CCN(C)C
- inhibition in vivo at […] (NCI-H1975 [1]): 78%
- inhibition in vivo at […] (A-431 [2]): 83%
- logD [3]: 2.9
- solubility thermodynamic [4]: 79 µM (≈ 38.4 µg/mL)
- IC50 [5]: 0.263 µM
- GI50 (NCI-H1975 [6]): 0.016 µM
- GI50 [7]: 0.021 µM
- GI50 [8]: 0.058 µM
- fraction unbound [9]: 0.075
- fraction unbound [10]: 0.134
- inhibition in vivo at 10 mg/kg/day (NCI-H1975 [11]): 123%
- inhibition in vivo at 10 mg/kg/day (A-431 [12]): 133%
- fraction unbound [13]: 0.16
- inhibition in vivo at 5 mg/kg/day (NCI-H1975 [14]): 125%
- inhibition in vivo at 5 mg/kg/day (A-431 [15]): 85%

Structure (SMILES): C=CC(=O)Nc1cc(Nc2ncc(Cl)c(-c3cnn4ccccc34)n2)c(OC)cc1N1CCN(C(=O)[C@H]2CCCCN2)CC1
- logD [3]: 2.2

Structure (SMILES): C=CC(=O)Nc1cc(Nc2ncc(Cl)c(-c3cn(C)c4ccccc34)n2)c(OC)cc1N(C)CCN(C)C
- logD [3]: 3.3
- solubility thermodynamic [4]: 759 µM (≈ 405 µg/mL)
- IC50 [16]: 7.4 µM
- IC50 [5]: 0.04 µM
- GI50 (NCI-H1975 [6]): 0.004 µM
- GI50 [7]: 0.003 µM
- GI50 [8]: 0.192 µM
- fraction unbound [9]: 0.023
- hepatocyte CLint [17]: 10 µL/min/1e6 cells
- Cmax [18]: 0.31 µM
- clearance (Rattus norvegicus): 1.62 L/h/kg
- bioavailability [19]: 7%

Structure (SMILES): C=CC(=O)Nc1cc(Nc2ncc(C#N)c(-c3cn(C)c4ccccc34)n2)c(OC)cc1N(C)CCN(C)C
- logD [3]: 2.7
- solubility thermodynamic [4]: 57 µM (≈ 29.9 µg/mL)
- IC50 [16]: 4.3 µM
- IC50 [5]: 0.038 µM
- GI50 (NCI-H1975 [6]): 0.002 µM
- GI50 [7]: 0.0008 µM
- GI50 [8]: 0.101 µM
- fraction unbound [9]: 0.089
- hepatocyte CLint [17]: 10 µL/min/1e6 cells
- Cmax [18]: 0.11 µM
- clearance (Rattus norvegicus): 3.72 L/h/kg
- bioavailability [19]: 6%
- fraction unbound [13]: 0.11

Structure (SMILES): C=CC(=O)Nc1cc(Nc2ncc(Cl)c(-c3cnn4ccccc34)n2)c(OC)cc1N(C)CCN(C)C
- IC50 [5]: 0.006 µM
- inhibition [20]: 97%
- inhibition (Insulin receptor [21]): 99%
- inhibition in vivo at 10 mg/kg (Mus musculus [28]): 30%
- inhibition in vivo at 10 mg/kg (Mus musculus [22]): 83%
- inhibition in vivo at 10 mg/kg (Mus musculus [29]): 60%
- inhibition in vivo at 10 mg/kg (Mus musculus [23]): 38%
- inhibition in vivo at 10 mg/kg (Mus musculus [30]): 10%
- inhibition in vivo at 10 mg/kg (Mus musculus [31]): 89%
- inhibition in vivo at 10 mg/kg (Mus musculus [24]): 100%
- inhibition in vivo at 10 mg/kg (Mus musculus [32]): 94%
- inhibition in vivo at 10 mg/kg (Mus musculus [25]): 93%
- inhibition in vivo at 10 mg/kg (Mus musculus [33]): 80%
- inhibition in vivo at 10 mg/kg/day (NCI-H1975 [11]): 130%
- inhibition in vivo at 10 mg/kg/day [26]: 243%
- inhibition in vivo at 10 mg/kg/day (A-431 [12]): 35%
- IC50 (Insulin receptor [27]): 0.009 µM
